The assay addresses native CB1 receptors (Rattus norvegicus, UniProt P20272). In words: CB1 receptor rat binding assay ([3H]SR141716A, rat brain membranes). As to conditions: rat brain membranes, [3H]SR141716A; for Ki: read-out: Binding rat pKi (converted).

The values that follow come from patent US20080090805A1, “CB-1 MODULATING COMPOUNDS AND THEIR USE” (ACADIA PHARMACEUTICALS INC., priority 2005, published 2008).

Structures are written as SMILES.

Chain of native CB1 receptors (P20272 whole entry): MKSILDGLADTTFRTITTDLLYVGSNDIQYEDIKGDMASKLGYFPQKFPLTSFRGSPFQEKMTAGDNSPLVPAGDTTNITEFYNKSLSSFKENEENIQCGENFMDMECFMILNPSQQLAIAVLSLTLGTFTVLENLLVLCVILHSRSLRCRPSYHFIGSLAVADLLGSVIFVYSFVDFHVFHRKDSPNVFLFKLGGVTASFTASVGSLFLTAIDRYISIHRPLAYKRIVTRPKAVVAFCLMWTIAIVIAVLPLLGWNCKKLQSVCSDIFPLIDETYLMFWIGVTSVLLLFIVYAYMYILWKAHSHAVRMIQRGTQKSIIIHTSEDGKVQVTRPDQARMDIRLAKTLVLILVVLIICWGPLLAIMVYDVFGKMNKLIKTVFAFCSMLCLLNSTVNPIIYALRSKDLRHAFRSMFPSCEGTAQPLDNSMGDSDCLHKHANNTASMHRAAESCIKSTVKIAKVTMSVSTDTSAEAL

Consider `CC(C)NC(=O)c1ccc2c(c1)N=C(c1ccc(Cl)cc1F)c1ccccc1S2` [drawing 1363], for which the “Binding rat Inh %” value is reported as 72% and the Ki is 31.6 nM. Regarding `COc1ccc(C2=Nc3cc(C(=O)NC4CCCC4)ccc3Sc3ccccc32)cc1` [drawing 1364], the “Binding rat Inh %” value was 71% and the Ki was 31.6 nM. As to `O=C(NCc1ccccc1)c1ccc2c(c1)N=C(c1ccccc1F)c1ccccc1S2` [drawing 1365], the Ki was 31.6 nM.

On to `O=C(NCc1ccccc1Cl)c1ccc2c(c1)N=C(N1CCCCC1)c1ccccc1S2` [drawing 1366], for which the Ki is 31.6 nM.

With `O=C(NCCc1ccc(Cl)cc1)c1ccc2c(c1)N=C(c1ccc(F)cc1)c1ccccc1S2` [drawing 1367], the Ki is 3.98 nM.

In the case of `O=C(NCc1ccccc1)c1ccc2c(c1)N=C(c1ccc(Cl)cc1)c1ccccc1S2` [drawing 1368], the Ki is 5.01 nM. For the molecule `O=C(NCc1ccco1)c1ccc2c(c1)N=C(c1ccc(Cl)cc1)c1ccccc1S2` [drawing 1369], the “Binding rat Inh %” value is listed as 93% and the Ki was 5.01 nM. Regarding `O=C(NCc1ccco1)c1ccc2c(c1)N=C(c1ccc(F)cc1)c1ccccc1S2` [drawing 1370], the “Binding rat Inh %” value was 103% and the Ki is 5.01 nM. Take `Cc1cnc(-c2ccc3c(c2)N=C(c2ccc(Cl)cc2)c2ccccc2S3)[nH]1` [drawing 1371]: the “Binding rat Inh %” value was 84% and the Ki was 31.6 nM. `CC(C)NC(=O)c1ccc2c(c1)N=C(c1ccc(Cl)cc1)c1ccccc1S2` [drawing 1372]: the “Binding rat Inh %” value came out at 90% and the Ki was 31.6 nM. With `O=C(NN1CCCCC1)c1ccc2c(c1)N=C(c1ccc(Cl)cn1)c1ccccc1S2` [drawing 1373], the “Binding rat Inh %” value stood at 95% and the Ki was 31.6 nM. The like results for `O=C(NN1CCCCC1)c1ccc2c(c1)N=C(c1cccc(F)c1)c1ccccc1S2` [drawing 1374] were, in that order, 94% and 31.6 nM. With `O=C(NCc1cccc(Cl)c1)c1ccc2c(c1)N=C(c1cccc(Cl)c1)c1cc(F)ccc1S2` [drawing 1375], the Ki is 5.01 nM. Take `O=C(NCCc1ccc(Cl)cc1)c1ccc2c(c1)N=C(c1ccc(Cl)cc1)c1ccccc1S2` [drawing 1376]: the Ki was 5.01 nM. In the case of `O=C(NCCC(F)(F)F)c1ccc2c(c1)N=C(c1ccc(Cl)cc1F)c1ccccc1S2` [drawing 1377], the “Binding rat Inh %” value amounted to 97% and the Ki was 5.01 nM. Take `CCCCNC(=O)c1ccc2c(c1)N=C(c1ccc(Br)cn1)c1ccccc1S2` [drawing 1378]: the “Binding rat Inh %” value was found to be 83% and the Ki is 5.01 nM. For the molecule `CC(NC(=O)c1ccc2c(c1)N=C(c1ccccc1)c1ccccc1S2)c1ccccc1` (stereo not shown) [drawing 1379], the Ki was 31.6 nM. Consider `O=C(NN1CCCCC1)c1ccc2c(c1)N=C(c1cccc(Cl)c1)c1ccccc1S2` [drawing 1380], for which the “Binding rat Inh %” value came out at 79% and the Ki is 31.6 nM. For the molecule `O=C(NCc1cccs1)c1ccc2c(c1)N=C(c1ccccn1)c1ccccc1S2` [drawing 1381], the “Binding rat Inh %” value stood at 109% and the Ki was 31.6 nM. For the molecule `Cc1ccsc1C1=Nc2cc(C(=O)NC3CCCC3)ccc2Sc2ccccc21` [drawing 1382], the “Binding rat Inh %” value amounted to 102% and the Ki is 31.6 nM.

`O=C(NCc1ccco1)c1ccc2c(c1)N=C(c1ccc(Cl)s1)c1ccccc1S2` [drawing 1383]: the “Binding rat Inh %” value came to 112% and the Ki was 5.01 nM. With `O=C(NCc1cccs1)c1ccc2c(c1)N=C(c1cccc(F)c1)c1ccccc1S2` [drawing 1384], the “Binding rat Inh %” value is reported as 95% and the Ki is 5.01 nM.

Turning to `O=C(NN1CCCCC1)c1ccc2c(c1)N=C(c1ccc(Cl)s1)c1ccccc1S2` [drawing 1385], the “Binding rat Inh %” value was 88% and the Ki was 5.01 nM. On to `O=C(NN1CCCCCC1)c1ccc2c(c1)N=C(c1ccc(Cl)cc1F)c1ccccc1S2` [drawing 1386], for which the “Binding rat Inh %” value was 84% and the Ki was 5.01 nM. As for `CCCNC(=O)c1ccc2c(c1)N=C(c1sccc1C)c1ccccc1S2` [drawing 1387], the “Binding rat Inh %” value is 64% and the Ki was 31.6 nM.

Take `O=C(NCc1ccccc1Br)c1ccc2c(c1)N=C(c1ccc(Cl)cc1)c1ccccc1S2` [drawing 1388]: the Ki is 31.6 nM. For the molecule `O=C(NCCc1ccncc1)c1ccc2c(c1)N=C(c1cccc(F)c1)c1ccccc1S2` [drawing 1389], the “Binding rat Inh %” value is 88% and the Ki was 31.6 nM. As to `O=C(NCc1cccc(Cl)c1)c1ccc2c(c1)N=C(c1ccc(F)cc1)c1ccccc1[S+]2[O-]` (stereo not shown) [drawing 1390], the Ki was 31.6 nM. With `O=C(NCc1ccc(F)cc1)c1ccc2c(c1)N=C(c1cccc(Cl)c1)c1ccccc1S2` [drawing 1391], the Ki is 5.01 nM.

Regarding `O=C(NCc1ccccc1Br)c1ccc2c(c1)N=C(C1CCCCC1)c1ccccc1S2` [drawing 1392], the Ki was 5.01 nM. Take `C[C@@H]1CCC[C@H](C)N1NC(=O)c1ccc2c(c1)N=C(c1ccc(Cl)c(Cl)c1)c1ccccc1S2` [drawing 1393]: the “Binding rat Inh %” value was 114% and the Ki was 5.01 nM.

With `O=C(NN1CCCCC1)c1ccc2c(c1)N=C(c1ccc(Cl)c(F)c1)c1ccccc1S2` [drawing 1394], the “Binding rat Inh %” value was 87% and the Ki is 5.01 nM. With `CCCC1=Nc2cc(C(=O)NCC(C)c3ccccc3)ccc2Sc2ccccc21` (stereo not shown) [drawing 1395], the Ki is 31.6 nM. For `C[C@@H]1CCC[C@H](C)N1NC(=O)c1ccc2c(c1)N=C(c1ccc(Cl)cc1)c1ccccc1S2` [drawing 1396], the “Binding rat Inh %” value is on record as 94% and the Ki was 39.8 nM. As for `O=C(NN1CCCCC1)c1ccc2c(c1)N=C(N1CCCCC1)c1ccccc1S2` [drawing 1397], the Ki was 39.8 nM. Turning to `O=C(NCCc1ccccn1)c1ccc2c(c1)N=C(c1ccc(Cl)cc1F)c1ccccc1S2` [drawing 1398], the “Binding rat Inh %” value was 74% and the Ki was 39.8 nM. `O=C(NC1CCCC1)c1ccc2c(c1)N=C(c1ccc(Cl)c(Cl)c1)c1ccccc1S2` [drawing 1399]: the “Binding rat Inh %” value was 78% and the Ki is 5.01 nM. With `Cc1ccc(CNC(=O)c2ccc3c(c2)N=C(c2sccc2C)c2ccccc2S3)o1` [drawing 1400], the “Binding rat Inh %” value is 102% and the Ki is 6.31 nM. `O=C(NCc1cccnc1)c1ccc2c(c1)N=C(c1ccc(Cl)c(Cl)c1)c1ccccc1S2` [drawing 1401]: the “Binding rat Inh %” value is listed as 102% and the Ki is 6.31 nM. As for `O=C(NCc1ccco1)c1ccc2c(c1)N=C(c1ccc(Cl)c(Cl)c1)c1ccccc1S2` [drawing 1402], the “Binding rat Inh %” value is 84% and the Ki is 6.31 nM.

For `CCCNC(=O)c1ccc2c(c1)N=C(c1ccc(OC)cc1)c1ccccc1S2` [drawing 1403], the “Binding rat Inh %” value amounted to 80% and the Ki was 39.8 nM.

As for `CCOCCNC(=O)c1ccc2c(c1)N=C(c1ccc(Br)cc1)c1ccccc1S2` [drawing 1404], the “Binding rat Inh %” value was determined as 81% and the Ki is 39.8 nM. In the case of `CCCCNS(=O)(=O)c1ccc2c(c1)N=C(c1ccc(Cl)cc1)c1ccccc1S2` [drawing 1405], the “Binding rat Inh %” value came to 92% and the Ki is 39.8 nM. In the case of `CCCCNC(=O)c1ccc2c(c1)N=C(c1ccc(Cl)cc1Cl)c1ccccc1S2` [drawing 1406], the “Binding rat Inh %” value came out at 98% and the Ki is 39.8 nM. As for `O=C(NCCc1cccnc1)c1ccc2c(c1)N=C(c1ccc(Cl)c(Cl)c1)c1ccccc1S2` [drawing 1407], the “Binding rat Inh %” value came out at 103% and the Ki is 6.31 nM. As for `O=C(NCc1cccc(Cl)c1)c1ccc2c(c1)N=C(c1ccc(F)cc1)c1ccccc1S2(=O)=O` [drawing 1408], the Ki was 6.31 nM. As to `O=C(NCc1ccccc1)c1ccc2c(c1)N=C(c1ccc(F)cc1)c1ccccc1S2` [drawing 1409], the Ki was 6.31 nM.

On to `CCCCNC(=O)c1cc2c(cc1O)Sc1ccccc1C(c1ccc(Cl)cc1)=N2` [drawing 1410], for which the “Binding rat Inh %” value was determined as 103% and the Ki was 6.31 nM. With `O=C(NCCc1ccccn1)c1ccc2c(c1)N=C(c1ccc(F)cc1)c1ccccc1S2` [drawing 1411], the “Binding rat Inh %” value turned out to be 85% and the Ki was 39.8 nM.

As to `COc1ccc(C2=Nc3cc(C(=O)NCc4ccncc4)ccc3Sc3ccccc32)cc1` [drawing 1412], the “Binding rat Inh %” value is recorded as 67% and the Ki was 39.8 nM. On to `O=C(NCc1ccccc1Cl)c1ccc2c(c1)N=C(c1ccccc1F)c1ccccc1S2` [drawing 1413], for which the Ki is 39.8 nM. On to `O=C(NC1CCC(F)(F)CC1)c1ccc2c(c1)N=C(c1ccccn1)c1ccccc1S2` [drawing 1414], for which the “Binding rat Inh %” value is 73% and the Ki was 39.8 nM. For `O=C(NCc1ccccc1Cl)c1ccc2c(c1)N=C(c1cccc(Cl)c1)c1ccccc1S2` [drawing 1415], the Ki is 6.31 nM. In the case of `Cc1ccc(CNC(=O)c2ccc3c(c2)N=C(c2ccc(Cl)cc2)c2ccccc2S3)o1` [drawing 1416], the “Binding rat Inh %” value is 88% and the Ki is 6.31 nM. Regarding `CCCCNC(=O)c1ccc2c(c1)N=C(C1CCCCC1)c1ccccc1S2` [drawing 1417], the Ki is 6.31 nM. As to `O=C(NCCC(F)(F)F)c1ccc2c(c1)N=C(c1ccc(F)cc1)c1ccccc1S2` [drawing 1418], the “Binding rat Inh %” value is 105% and the Ki is 6.31 nM. Consider `O=C(NCc1ccccn1)c1ccc2c(c1)N=C(c1cccc(Br)c1)c1ccccc1S2` [drawing 1419], for which the “Binding rat Inh %” value was found to be 79% and the Ki was 39.8 nM. For the molecule `O=C(NCc1ccc(Cl)cc1Cl)c1ccc2c(c1)N=C(c1ccc(Cl)cc1)c1ccccc1S2` [drawing 1421], the Ki was 39.8 nM. For `CC(NC(=O)c1ccc2c(c1)N=C(c1ccccc1F)c1ccccc1S2)c1ccccc1` (stereo not shown) [drawing 1422], the Ki was 39.8 nM. As to `O=C(NN1CCCCC1)c1ccc2c(c1)N=C(c1ccc(Br)cc1)c1ccccc1S2` [drawing 1423], the “Binding rat Inh %” value is listed as 89% and the Ki is 6.31 nM.
